Counter-ions that a name gives are not always drawn. ± gives the standard error.
Columns and labels:
[1] = tested on: 621-103 (TSC2-rescued); experiment: relative viability vs DMSO; higher = less cytotoxic; settings: serum: 10% FBS, 72 h
[2] = tested on: 621-102 (TSC2-deficient); experiment: as above; settings: serum: 10% FBS, 72 h
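Further: immortalized renal angiomyolipoma cells stably carrying empty vector or TSC2, dosed in 384-well plates in DMEM, viability normalized to vehicle-treated wells within each plate.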

| SMILES | relative viability ([1]; 0.0001 µM) [%] | relative viability ([1]; 0.001 µM) [%] | relative viability ([1]; 0.01 µM) [%] | relative viability ([1]; 0.1 µM) [%] | relative viability ([1]; 1 µM) [%] | relative viability ([1]; 10 µM) [%] | relative viability ([2]; 0.0001 µM) [%] | relative viability ([2]; 0.001 µM) [%] | relative viability ([2]; 0.01 µM) [%] | relative viability ([2]; 0.1 µM) [%] | relative viability ([2]; 1 µM) [%] | relative viability ([2]; 10 µM) [%] |
| --- | --- | --- | --- | --- | --- | --- | --- | --- | --- | --- | --- | --- |
| Oc1cccc(-c2nc(N3CCOCC3)c3oc4ncccc4c3n2)c1 [PI-103] | 112 ± 1.2 | 95.6 ± 3.2 | 101.2 ± 0.72 | 102.5 ± 0.82 | 83.4 ± 2.7 | 38 ± 0.63 | 105 ± 1.1 | 92.1 ± 7.2 | 95.5 ± 3.6 | 103 ± 1.9 | 91.8 ± 3.4 | 37.66 ± 0.19 |
| O=C1NC(=O)/C(=C/c2ccc3c(c2)OC(F)(F)O3)S1 | 98.2 ± 7.7 | 91.4 ± 7.6 | 90.7 ± 1.1 | 95.5 ± 2.7 | 98.1 ± 6.7 | 88.49 ± 0.37 | 104 ± 2.5 | 97.7 ± 4.8 | 102 ± 1.9 | 104.3 ± 0.58 | 100.2 ± 0.23 | 102.4 ± 0.35 |
| CC1=C2C[C@H]3[C@@H](CC=C4C[C@@H](O)CC[C@@]43C)[C@@H]2CC[C@]12O[C@@H]1C[C@H](C)CN[C@H]1[C@H]2C [Cyclopamine] | 100 ± 1.7 | 101 ± 1.4 | 98.16 ± 0.86 | 100.3 ± 0.2 | 99.22 ± 0.46 | 98.9 ± 2.2 | 107 ± 4 | 95.64 ± 0.15 | 99.7 ± 0.74 | 103 ± 1.3 | 112.9 ± 0.35 | 95.49 ± 0.81 |
| COc1ccc([C@H]2CNC(=O)C2)cc1OC1CCCC1 [S-(+)-Rolipram] | 103 ± 5.1 | 100 ± 2 | 104 ± 3.3 | 104 ± 2.8 | 104 ± 3.2 | 106 ± 2.3 | 101 ± 4.1 | 102 ± 1.8 | 102 ± 3.9 | 101 ± 2.3 | 96.742 ± 0.089 | 103.39 ± 0.018 |
| Cc1[nH]c(/C=C2\C(=O)Nc3ccccc32)c(C)c1CCC(=O)O [TSU-68] | 101 ± 1.9 | 103 ± 1.2 | 101 ± 2.4 | 102 ± 1.7 | 102 ± 1.9 | 95.7 ± 1.1 | 94 ± 1.4 | 106 ± 3.3 | 119 ± 3.6 | 110 ± 2.1 | 91.7 ± 3.8 | 95.8 ± 2.4 |
| O=c1n(CCCN2CCN(c3cccc(Cl)c3)CC2)nc2ccccn12 [Trazodone HCl] | 77.1 ± 6.5 | 84.3 ± 2.8 | 84.8 ± 4 | 86.6 ± 3.6 | 68.2 ± 3.2 | 63.7 ± 7.5 | 103 ± 1.2 | 103 ± 1.8 | 105 ± 2.1 | 99.8 ± 4.6 | 107 ± 1.8 | 103 ± 4.7 |
| O=c1ncn2nc(Sc3ccc(F)cc3F)ccc2c1-c1c(Cl)cccc1Cl [VX-745] | 99.1 ± 1 | 101 ± 1.2 | 99.4 ± 1.5 | 100 ± 1.5 | 99.42 ± 0.31 | 98.127 ± 0.049 | 106 ± 5.1 | 112 ± 5.5 | 107 ± 1.1 | 104 ± 2.1 | 106 ± 4 | 93.3 ± 3.9 |
| CC[C@H](Nc1ncnc2[nH]cnc12)c1nc2cccc(F)c2c(=O)n1-c1ccccc1 [CAL-101] | 116 ± 3.1 | 109 ± 3.1 | 114 ± 1.2 | 104 ± 3.4 | 109 ± 2 | 92.7 ± 4.7 | 104.38 ± 0.033 | 117.5 ± 0.72 | 111 ± 5.8 | 106 ± 3 | 104.1 ± 0.72 | 92.41 ± 0.24 |
| CN(C)Cc1ccc(-c2nc3cccc4c3n2CCNC4=O)cc1 | 103.8 ± 0.6 | 101.41 ± 0.034 | 102 ± 1.3 | 105 ± 1.6 | 103 ± 0.17 | 97.7 ± 0.77 | 125 ± 2.7 | 120.04 ± 0.068 | 127 ± 1.8 | 119 ± 5 | 118 ± 2.8 | 110 ± 1.7 |

— the supplement of paper PMC8960247
